The results in this text go back to US20160146815A1, “METHOD FOR SCREEING CANCER METASTASIS INHIBITOR USING CULTURE OF CELLS OR SPHEROIDICALLY AGGREGATED CELLS IN WHICH LYSYL-TRNA SYNTHETASE IS REGULATED TO BE EXPRESSED OR UNEXPRESSED” (Medicinal Bioconvergence Research Center, priority 2013, published 2016).

Data set [1] concerns lysyl-tRNA synthetase (KRS). The experiment in a line: KRS expression after shRNA transfection (Western blotting). Type of data set: cell-based, homo sapiens. Particulars: HCT116 cells transfected with KRS shRNA plasmid DNA. The text has this: Particularly, the cell line wherein KRS expression was suppressed was constructed by transfecting cells with lysyl-tRNA synthetase MISSION® shRNA plasmid DNA (Sigma, USA). At this time, the said KRS was homo sapiens lysyl-tRNA synthetase (transcript variant 1, mRNA sequence: NM_001130089.1). This KRS includes […] long exon 1˜15. Among the purchased KRS shRNA plasmid DNAs, shKRS-0 (SEQ. ID. NO: 1) targets 1581˜1604 bp (exon 12) of KRS, shRKS-1 (SEQ. ID. NO: 2) targets 437˜459 bp (exon 3˜4), shKRS-2 (SEQ. ID. NO: 3) targets 911˜933 bp (exon 7), and shKRS-5 (SEQ. ID. NO: 4) targets 1071˜1092 bp (exon 8). TRC1.5-pLK0.1-puro was used as the expression vector. Selection was performed by using puromycin to establish stable cell lines.
Western blotting was performed to investigate whether or not the KRS expression was inhibited in the spheroidically aggregated cells of the KRS knock-out cell lines constructed by the method of Example <2-1>.
Background: Immunoblotting shows a protein as a band on a membrane.

Data set [2] deals with HCT116 spheroidically aggregated cells. The experiment in a line: Dissemination of cells from spheroidically aggregated cells in three-dimensional collagen gel (time-lapse microscope). Type of data set: cell-based, human. As to the method:
Particularly, 2.5 mg/Ml of collagen containing cells was loaded in the magnetic 4-well chamber (Live Cell Instrument, Korea) for the culture system of time-lapse microscope, and the collagen was hardened in a 37° C. incubator for 30 minutes. When the collagen was fully solidified, PRMI-1640 supplemented with 10% FBS was added thereto. The magnetic chamber containing three-dimensional collagen gel and its corresponding adaptor were placed on the time-lapse microscope, followed by setting the multi-position. […] 5% CO2 incubator. Culture medium was added thereto every 6 hours in order for the collagen not to be dried. At this time, it is important to maintain the focus not to be changed. […]
As confirmed in the result of Example 14, when the HCT116 parental cells were treated with TGFβ1, the dissemination of cells from the spheroidically aggregated cells and migration thereof were observed. When the KRS knock-out cell line was treated with TGFβ1, the dissemination of cells was not observed. […] When the extracellular signal-regulated kinase (ERKs) inhibitor U0126 was treated to the HCT116 parental cells, it was presumed to be negative effect on the dissemination and migration of cells. To verify above, 50 μM of U0126, the ERKs inhibitor, was treated to the cell line, followed by observation of cell dissemination and migration by real-time live imaging of the spheroidically aggregated cells.

Another data set concerns HCT116 cells. Briefly: EMT marker protein expression in two-dimensional culture treated with cytokines (Western blotting). Particulars: 10% FBS. Type of data set: cell-based, human. As to the method:
Particularly, the cell line cultured in a two-dimensional environment with 10% serum was washed with PBS twice, followed by reaction at 4° C. for 15 minutes in 200 μl of lysis buffer [50 mM Tris-HCl, pH 7.4, 1% NP-40, 0.25% sodium deoxycholate, 150 mM NaCl, 1 mM EDTA] supplemented with SDS, Na3O4V, and protease inhibitor cocktails (GenDepot, USA). The cells were collected and centrifuged at 4° C. at 13000×g for 30 minutes. The supernatant was transferred in a new microcentrifuge tube, followed by protein quantification using BCA reagent (Thermo Scientifics, USA). To the quantified sample was added 4× sample buffer [100% glycerol 4 ml, Tris-HCl, pH 6.8, 2.4 ml, SDS 0.8 g, bromophenol blue 4 mg, β-mercaptoethanol 0.4 ml, H2O 3.1 ml (total 10 Ml)], which was boiled at 100° C. for 5 minutes. The prepared sample was treated with the primary antibodies of ZO-1 (Zymed, USA), β-catenin (Santa Cruz, USA), and E-cadherin by the same manner as described in Example <1-2>.
To observe the surrounding microenvironmental factors in a two-dimensional culture environment over the time, the culture fluid supplemented with 10% FBS was additionally treated with such cytokines as TNFα and TGFβ, followed by investigation of the expression of the epithelial marker protein that can be an index for cell-cell adhesion by the same manner as described in Example <3-1>.

Where [3] appears, read: TGFβ1, normal HCT116 and KRS over-expressing cell line.

“Also recorded” adds a separate entry of the source.

Take “shKRS-2: KRS MISSION shRNA plasmid DNA (Sigma), SEQ. ID. NO: 3, targets 911˜933 bp (exon 7) of KRS (DNA CCGGCCAGAGATACTTGGACTTGATCTCGAGATCAAGTCCAAGTATCTCTGGTTTTTG)”: the KRS expression entry in data set [1] was “KRS inhibiting effect”.
The same measure, in the same setting: under “shKRS-0: KRS MISSION shRNA plasmid DNA (Sigma), SEQ. ID. NO: 1, targets 1581˜1604 bp (exon 12) of KRS (DNA CCGGCCTGGAAGTGACTTGCATCAACTCGAGTTGATGCAAGTCACTTCCAGGTTTTTG)” stands “KRS inhibiting effect”.
Consider “TGFβ1: the most representative multifunctional and EMT inducing cytokine”, for which the “formation of invasive protrusion” value in data set [2] (TGFβ1, 36 hours, HCT116 parental cells and KRS over-expressing cell lines) is given as “not observed”. In addition, in data set [2] (TGFβ1, HCT116 parental cells and KRS over-expressing cell lines), the “dissemination of cells from spheroid cells” value is “observed”. In data set [2] (TGFβ1, KRS knock-out cell line), the cell migration entry is reported as “significantly decreased”; the dissemination of cells result was “not and not observed”. In the data set on HCT116 cells (KRS knock-out cell line), the “epithelial marker protein like occludin (ZO-1 and occludin) expression” value was “increase; also recorded: up-regulated”; the fibronectin expression entry is recorded as “reduced; also recorded: down-regulated; also recorded: decrease”. Moreover, in the data set on HCT116 cells (setting [3]), the fibronectin expression entry was “up-regulated” and the “occludin or ZO-1 expression” value is recorded as “down-regulated”.
“shKRS-5: KRS MISSION shRNA plasmid DNA (Sigma), SEQ. ID. NO: 4, targets 1071˜1092 bp (exon 8) of KRS (DNA CCGGGCCTTTCATCACTTATCACAACTCGAGTTGTGATAAGTGATGAAAGGCTTTTTG)”: the KRS expression entry in data set [1] was “KRS inhibiting effect”.
Take TNFα: the “formation of invasive protrusion” value in data set [2] (TNFα, 36 hours, HCT116 parental cells, KRS over-expressing cell line and KRS knock-out cell line) is listed as “increased”. In data set [2] (TNFα, 36 hours, parental, KRS over-expressing and KRS knock-out cell lines (regardless of KRS expression)), the “dissemination of cells from the cell mass and cell migration” value is “observed”. Further, in the data set on HCT116 cells (KRS knock-out cell line), the “epithelial marker protein like occludin (ZO-1 and occludin) expression” value is reported as “increased”; the fibronectin expression entry was “reduced”. In addition, the “expression of the epithelial marker protein” value with HCT116 cells (TNFα, normal HCT116 and KRS over-expressing cell line) is “not changed”.
